Assay results: patent US10544113B2 (priority 2016, dated 2020)
Like-named read-outs stand apart in the source and are kept apart here.

Molecular target: mu-opioid receptor (MOR) (Homo sapiens (Human), UniProt P35372)
Experiment: cell-based
Settings: combined with a MOR antagonist; for AUC: AUC of [Ca2+]i fluorescence, CHO-K1/MOR/Gα15 cells
Protocol: In an exemplary in vitro screening method for identifying antagonist-to-agonist allosteric modifiers of a MOR, cells that express a MOR are treated with a test compound and a MOR antagonist in a cellular calcium fluorescent assay and fluorescence intensity is then measured to determine whether the MOR is activated. A test compound is identified as an antagonist-to-agonist allosteric modifier of the MOR if the MOR is activated.
EC50 herein refers to the concentration of a compound that induces a response halfway between the baseline and the maximum after a specified exposure time. AUC refers to the area under the response curve, an indication of the compound's capability of activating a MOR when combined with a MOR antagonist.
Human embryonic kidney 293 (HEK-293) cells constitutively expressing MOR (HEK-MOR) and DOR (HEK-DOR) (kindly provided by Dr. Ping-Yee Law, University of Minnesota, USA) were cultured in high-glucose Dulbecco's modified Eagle's medium (DMEM, GIBCO) supplemented with 400 μg/mL G418 (Sigma), 2 mM L-glutamine and P/S/F (100 units/mL penicillin, 100 μg/mL streptomycin, 10% fetal bovine serum). Chinese hamster ovary (CHO)-K1 cells, stably expressing hMOR and Gα15 (CHO-K1/MOR/Gα15), were cultured in F12 medium (GIBCO) supplemented with 10 μg/mL Hygromycin B (Invivogen), 20 μg/mL Zeocin (Invivogen) P/S/F (100 units/mL penicillin, 100 μg/mL streptomycin, 10% fetal bovine serum). The cultures were incubated at 37° C. in a humidified 5% CO2 incubator.
One day before the assay, CORNING® black with clear flat bottom 96-well assay plates were coated with a 0.1 mg/mL Poly-L-Lysine solution. CHO-K1/MOR/Gα15 cells were suspended in the F12 medium and plated at a density of ˜8×10^4 cells/well in 200 μL medium. Cells were incubated in a humidified atmosphere of 10% CO2 at 37° C. overnight so as to reach an 80-90% confluent cell monolayer before assay. At the day of assay, 150 μL medium/well was removed from plate. To each well, 50 μL FLIPR® calcium assay reagent dissolved in 1× assay buffer (HBSS: KCl 5 mM, KH2PO4 0.3 mM, NaCl 138 mM, NaHCO3 4 mM, Na2HPO4 0.3 mM, d-glucose 5.6 mM, with additional 20 mM HEPES and 13 mM CaCl2, pH 7.4), with 2.5 mM probenecid was added and the plate was incubated at 37° C. for 1 h. Compounds and other reagents were dissolved in the assay buffer. Using a FlexStationIII (Molecular Devices Corp.), the [Ca^2+]i fluorescence increases after robotic injections of compounds or other reagents were monitored every 1.52 s interval with excitation wavelength at 485 nm and with emission wavelength at 525 nm. The [Ca^2+]i fluorescence was measured up to 90 s after agonist injection.
A CHO-K1 cell line, expressing a MOR and Gα15 (GenScript), was used to set up a sensitive high-throughput screen (HTS) system. In a FLIPR® calcium assay using CHO-K1/MOR/Gα15 cells, activation of MOR elicits an intracellular calcium release leading to an increase in the relative fluorescence units (FRU). […] The HTS was performed in the absence or presence of an opioid antagonist, naloxone (25 nM), to identify antagonist to agonist allosteric modifiers (AAM).
A CHO-K1 cell line, expressing a MOR and Gα15 (GenScript), was used to set up a sensitive assay system for detecting μ-opioid receptor activation. […] The assay was performed in the presence of an opioid antagonist, i.e., naloxone (25 nM), naltrexone (20 nM), samidorphan (10 nM), naloxonazine dihydrochloride (20 nM), β-funaltrexamine hydrochloride (20 nM), cyprodime hydrochloride (500 nM), or nalmefene (20 nM), in combination with compound 58, an antagonist to agonist allosteric modifier (AAM), to identify activation of the μ-opioid receptor.

mu-opioid receptor (MOR), sequence (P35372 whole entry): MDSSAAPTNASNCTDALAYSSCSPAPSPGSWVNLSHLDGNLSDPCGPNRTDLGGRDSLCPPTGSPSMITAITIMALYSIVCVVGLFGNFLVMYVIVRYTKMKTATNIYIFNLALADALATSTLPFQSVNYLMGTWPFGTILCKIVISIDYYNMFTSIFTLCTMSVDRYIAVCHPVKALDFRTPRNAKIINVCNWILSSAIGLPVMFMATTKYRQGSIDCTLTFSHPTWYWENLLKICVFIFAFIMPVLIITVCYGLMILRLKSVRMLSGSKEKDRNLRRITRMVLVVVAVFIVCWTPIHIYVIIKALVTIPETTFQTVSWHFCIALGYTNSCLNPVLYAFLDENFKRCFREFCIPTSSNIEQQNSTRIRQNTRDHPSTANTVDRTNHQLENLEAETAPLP

SMILES | FLIPR Ca^2+ AUC | EC50 (read-out: FLIPR Ca^2+ EC50) | AUC | EC50 (EC50, CHO-K1/MOR/Gα15 cells)
COCCN(C)C(=O)c1ccc(N2C(=O)CSC2c2ccc(F)cc2)c(C)c1 (centres unmarked) [Example 356] | 9505 | 11.8 µM | – | –
COc1ccc(C2SCC(=O)N2c2ccc(C(=O)O)cc2C)cc1 (centres unmarked) [Example 78] | 9368 | 6 µM | more than 5000 | < 10 µM
Cc1ccc(F)cc1N1C(=O)CSC1c1ccc(Cl)c(F)c1 (centres unmarked) [Example 123] | 4228 | 0.5 µM | – | –
Cc1cc(C(=O)NS(=O)(=O)c2ccc(Cl)cc2F)ccc1N1C(=O)CSC1c1ccc(F)cc1 (centres unmarked) | 15287 | 0.1 µM | more than 5000 | < 10 µM
Cc1cc(C(=O)OC2COC(C)(C)OC2)ccc1N1C(=O)CSC1c1ccc(F)cc1 (centres unmarked) [Example 277] | 14634 | 6.1 µM | – | < 10 µM
Cc1cc(C)cc(CS(=O)(=O)NC(=O)c2ccc(N3C(=O)CSC3c3ccc(F)cc3)c(C)c2)c1 (centres unmarked) [Example 179] | 14442 | 1.1 µM | more than 5000 | < 10 µM
COc1c(F)cc(F)cc1N1C(=O)CSC1c1ccc(F)cc1 (centres unmarked) [Example 11, 3-(3,5-Difluoro-2-methoxyphenyl)-2-(4-fluorophenyl)thiazolidin-4-one] | – | – | – | < 10 µM
Cc1cc(C(=O)Nc2ccccc2)ccc1N1C(=O)CSC1c1ccc(F)cc1 (centres unmarked) [Example 361] | 6128 | 8.8 µM | more than 5000 | < 10 µM
Cc1cc(C(=O)OCCCN2CCOCC2)ccc1N1C(=O)CSC1c1ccc(F)cc1 (centres unmarked) [Example 297] | 13753 | 8.1 µM | – | –
Cc1cc(C(=O)NC2CC2)ccc1N1C(=O)CSC1c1ccc(F)cc1 (centres unmarked) [Example 336] | 11347 | 11 µM | – | –
CCN(CC)CCNC(=O)c1ccc(N2C(=O)CSC2c2ccc(F)cc2)c(C)c1 (centres unmarked) [Example 341] | 9983 | 3.3 µM | – | –
N#Cc1ccc(N2C(=O)CSC2c2ccc(F)cc2)cc1 (centres unmarked) [Example 37] | – | – | – | < 10 µM
COc1cc(F)c(F)cc1N1C(=O)CSC1c1ccc(F)cc1 (centres unmarked) [Example 10, 3-(4,5-Difluoro-2-methoxyphenyl)-2-(4-fluorophenyl)thiazolidin-4-one] | 6152 | 2 µM | – | < 10 µM
Cc1cc(C(=O)N2CC[C@@H](N(C)C)C2)ccc1N1C(=O)CSC1c1ccc(F)cc1 (some centres unmarked) [Example 349] | 11923 | 10 µM | – | –
Cc1cc(C(=O)OC(C)CNC(=O)c2cccnc2)ccc1N1C(=O)CSC1c1ccc(F)cc1 (centres unmarked) [Example 326] | – | – | – | < 10 µM
Cc1cc(C(=O)OCCN2CCCCC2)ccc1N1C(=O)CSC1c1ccc(F)cc1 (centres unmarked) [Example 295] | 10426 | 2.8 µM | – | –
Cc1cc(C(=O)OCC(F)(F)F)ccc1N1C(=O)CSC1c1ccc(F)cc1 (centres unmarked) [Example 286] | 13001 | 9.2 µM | more than 5000 | < 10 µM
CC(=O)COC(=O)c1ccc(N2C(=O)CSC2c2ccc(F)cc2)c(C)c1 (centres unmarked) [Example 268] | 12787 | 3.8 µM | – | –

SMILES | FLIPR Ca^2+ AUC | EC50 (read-out: FLIPR Ca^2+ EC50) | AUC | EC50 (EC50, CHO-K1/MOR/Gα15 cells)
Cc1cc(C(=O)NCCCn2ccnc2)ccc1N1C(=O)CSC1c1ccc(F)cc1 (centres unmarked) [Example 348] | 13641 | 8.8 µM | – | –
Cc1cc(C(=O)OCCCN2CCCCC2)ccc1N1C(=O)CSC1c1ccc(F)cc1 (centres unmarked) [Example 298] | 9283 | 1.7 µM | – | –
Cc1cc(C(=O)NCCc2ccc(F)cc2)ccc1N1C(=O)CSC1c1ccc(F)cc1 (centres unmarked) [Example 387] | 5770 | 4 µM | – | –
CCOC(=O)c1ccc(N2C(=O)CSC2c2ccc(F)cc2)c(C)n1 (centres unmarked) [Example 635, Ethyl 5-[2-(4-fluorophenyl)-4-oxo-1,3-thiazolidin-3-yl]-6-methylpyridine-2-carboxylate] | 9843 | 10.9 µM | more than 5000 | –
CCCNC(=O)c1ccc(N2C(=O)CSC2c2ccc(F)cc2)c(C)c1 (centres unmarked) [Example 334] | 9672 | 5.7 µM | – | < 10 µM
CNC(=O)c1ccc(N2C(=O)CSC2c2ccc(F)cc2)c(C)c1 (centres unmarked) [Example 331] | – | – | – | < 10 µM
Cc1cc(C(=O)NCc2ccc(F)c(F)c2)ccc1N1C(=O)CSC1c1ccc(F)cc1 (centres unmarked) [Example 378] | 15891 | 6.3 µM | – | < 10 µM
COC(=O)c1ccc(N2C(=O)CSC2c2ccoc2)c(C)c1 (centres unmarked) [Example 416] | 6514 | 11.7 µM | more than 5000 | –
CCOCCOC(=O)c1ccc(N2C(=O)CSC2c2ccc(F)cc2)c(C)c1 (centres unmarked) [Example 281] | 9792 | 4.5 µM | – | –
Cc1cc(C(=O)NCCc2ccc(Cl)cc2)ccc1N1C(=O)CSC1c1ccc(F)cc1 (centres unmarked) [Example 388] | 2951 | 2 µM | – | –
Cc1cc(C(=O)NS(=O)(=O)c2ccc(F)cc2F)ccc1N1C(=O)CSC1c1ccc(F)cc1 (centres unmarked) [Example 206] | – | – | – | < 10 µM
Cc1cc(N(C)C)ccc1N1C(=O)CSC1c1ccc(F)cc1 (centres unmarked) [Example 53] | 6407 | 0.5 µM | – | –
CCc1ccc(C2SCC(=O)N2c2cc(F)ccc2C)cc1 (centres unmarked) [Example 117] | 7880 | 13.5 µM | more than 5000 | –
COCCCOC(=O)c1ccc(N2C(=O)CSC2c2ccc(F)cc2)c(C)c1 (centres unmarked) [Example 267] | 15960 | 6.4 µM | – | –
Cc1cc(C(=O)OCCCN(C)C)ccc1N1C(=O)CSC1c1ccc(F)cc1 (centres unmarked) [Example 291] | 8913 | 1.9 µM | – | –
Cc1cc(C(=O)O)ccc1N1C(=O)CSC1c1cccc(C(F)(F)F)c1 (centres unmarked) [Example 74] | – | – | – | < 10 µM
Cc1cc(C(=O)OCCOCc2ccccc2)ccc1N1C(=O)CSC1c1ccc(F)cc1 (centres unmarked) [Example 258] | 6353 | 3.3 µM | more than 5000 | < 10 µM
